From PubChem BioAssay (NCI)
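How tested: cells in 96-well plates exposed to compound for 48 hours at five concentrations. TGI: concentration producing complete growth inhibition.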

Tests used:
Assay in all cases: NCI tumour cell line growth inhibition, 48 h
HCT-15 colon = test system: HCT-15 colon
RXF 393 renal = test system: RXF 393 renal
TK-10 renal = test system: TK-10 renal
SR leukemia = test system: SR leukemia
SF-295 CNS = test system: SF-295 CNS
NCI-H522 lung = test system: NCI-H522 lung
A498 renal = test system: A498 renal
MOLT-4 leukemia = test system: MOLT-4 leukemia
HCC-2998 colon = test system: HCC-2998 colon
PC-3 prostate = test system: PC-3 prostate
UO-31 renal = test system: UO-31 renal
DU-145 prostate = test system: DU-145 prostate
SK-MEL-5 melanoma = test system: SK-MEL-5 melanoma
SK-MEL-28 melanoma = test system: SK-MEL-28 melanoma
OVCAR-3 ovarian = test system: OVCAR-3 ovarian
UACC-62 melanoma = test system: UACC-62 melanoma
MCF7 breast = test system: MCF7 breast
LOX IMVI melanoma = test system: LOX IMVI melanoma
ACHN renal = test system: ACHN renal
UACC-257 melanoma = test system: UACC-257 melanoma
NCI-H23 lung = test system: NCI-H23 lung
NCI/ADR-RES ovarian = test system: NCI/ADR-RES ovarian
KM12 colon = test system: KM12 colon
OVCAR-4 ovarian = test system: OVCAR-4 ovarian
EKVX NSCLC = test system: EKVX NSCLC
OVCAR-5 ovarian = test system: OVCAR-5 ovarian
OVCAR-8 ovarian = test system: OVCAR-8 ovarian
NCI-H226 lung = test system: NCI-H226 lung
U251 CNS = test system: U251 CNS
MDA-MB-435 = test system: MDA-MB-435
MDA-N = test system: MDA-N
MDA-MB-231 breast = test system: MDA-MB-231 breast
SK-OV-3 ovarian = test system: SK-OV-3 ovarian
RPMI-8226 leukemia = test system: RPMI-8226 leukemia
SF-268 CNS = test system: SF-268 CNS
HL-60(TB) leukemia = test system: HL-60(TB) leukemia
BT-549 breast = test system: BT-549 breast
SNB-19 CNS = test system: SNB-19 CNS
786-0 renal = test system: 786-0 renal
SN12C renal = test system: SN12C renal
HS 578T breast = test system: HS 578T breast
M14 melanoma = test system: M14 melanoma
SNB-75 CNS = test system: SNB-75 CNS
HT29 colon = test system: HT29 colon
HCT-116 colon = test system: HCT-116 colon
K-562 leukemia = test system: K-562 leukemia
HOP-62 NSCLC = test system: HOP-62 NSCLC
MALME-3M melanoma = test system: MALME-3M melanoma
IGROV1 ovarian = test system: IGROV1 ovarian
SF-539 CNS = test system: SF-539 CNS
HOP-92 NSCLC = test system: HOP-92 NSCLC
CAKI-1 renal = test system: CAKI-1 renal
SW-620 colon = test system: SW-620 colon
COLO 205 colon = test system: COLO 205 colon
NCI-H460 lung = test system: NCI-H460 lung
A549 NSCLC = test system: A549 NSCLC
T-47D breast = test system: T-47D breast
SK-MEL-2 melanoma = test system: SK-MEL-2 melanoma
CCRF-CEM leukemia = test system: CCRF-CEM leukemia

Measured: TGI

C=C1CC/C=C(\C)CCC[C@H](C)[C@@H](O)[C@@H]2OC(=O)C(=C)[C@@H]2C[C@H]1O
11.5 µM: NCI-H226 lung
28.4 µM: M14 melanoma
27.2 µM: NCI/ADR-RES ovarian
16.7 µM: OVCAR-8 ovarian
17.8 µM: DU-145 prostate
19.2 µM: UO-31 renal
24.7 µM: SNB-75 CNS
23.1 µM: PC-3 prostate | SF-268 CNS
4.5 µM: TK-10 renal
31.9 µM: UACC-257 melanoma
4.96 µM: NCI-H522 lung
13.8 µM: IGROV1 ovarian
29.9 µM: KM12 colon | COLO 205 colon
42 µM: SN12C renal
22.1 µM: MALME-3M melanoma
6.94 µM: SF-539 CNS
35.9 µM: MDA-N
30.5 µM: HCT-116 colon
33.9 µM: HS 578T breast | A549 NSCLC
> 38.8 µM: K-562 leukemia
15.2 µM: HT29 colon
9.5 µM: ACHN renal
17.3 µM: MDA-MB-435
22.6 µM: SK-MEL-5 melanoma | OVCAR-3 ovarian
25.9 µM: UACC-62 melanoma | LOX IMVI melanoma
7.22 µM: HOP-92 NSCLC
> 100 µM: SR leukemia | A498 renal | HL-60(TB) leukemia
3 µM: BT-549 breast
> 64.1 µM: SK-OV-3 ovarian
30.8 µM: HOP-62 NSCLC
32.9 µM: SF-295 CNS
47.1 µM: T-47D breast
50.2 µM: U251 CNS
28.7 µM: SNB-19 CNS
27 µM: SK-MEL-2 melanoma
27.1 µM: NCI-H460 lung
39.2 µM: OVCAR-5 ovarian
> 21.9 µM: RPMI-8226 leukemia
26.8 µM: NCI-H23 lung
18.6 µM: 786-0 renal
> 42.6 µM: EKVX NSCLC
13.1 µM: HCT-15 colon
22.2 µM: RXF 393 renal | SK-MEL-28 melanoma
50.5 µM: HCC-2998 colon | MDA-MB-231 breast
> 32.4 µM: SW-620 colon
51.7 µM: OVCAR-4 ovarian
9.62 µM: MOLT-4 leukemia
17 µM: CAKI-1 renal
> 42.7 µM: MCF7 breast

COc1ccc(N=NC(=O)NC(CC(C)C)C(=O)NC(C)C(=O)O)cc1 (centres undefined)
> 45.3 µM: T-47D breast
> 89 µM: NCI-H460 lung
> 26.6 µM: UO-31 renal
> 51.2 µM: A549 NSCLC
16.3 µM: COLO 205 colon
> 38.4 µM: K-562 leukemia
14.4 µM: SF-539 CNS
not listed: LOX IMVI melanoma | SK-OV-3 ovarian
> 100 µM: all other assays above

CC1(C)OC2C(O)C(CO)OC2(C(F)F)O1 (centres undefined)
> 100 µM: all assays above
